Here are results for 7 compounds from patent publication US10375956B2, “Herbicidally active 2-(substituted-phenyl)-cyclopentane-1,3-dione compounds and derivatives thereof” (Syngenta Limited, priority 2013, dated 2019).

Assay type in all cases: in vivo
The test system of assay [1] is Zea mays (ZEAMX, corn/maize). Nature of the assay: Test 1 glasshouse assay, pre-emergence herbicidal activity. To be noted: 312 h, visual evaluation after 13 days, read-out: Percentage phytotoxicity ZEAMX. The essentials: (§1)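 Pots are sprayed pre-emergence, one day after sowing, with the technical active ingredient in an acetone/water mixture containing 0.5% Tween 20. After 13 days under controlled glasshouse conditions, damage is rated visually as percent phytotoxicity.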

The test system of assay [2] is Setaria faberi (SETFA). The description is as above. The note with it: 312 h, visual evaluation after 13 days, read-out: Percentage phytotoxicity SETFA. The essentials: as §1
For another assay, the system named is Eleusine indica (ELEIN). Briefly: Biological Example 3 glasshouse assay, post-emergence, various adjuvant systems. To be noted: 8 g/ha; for percentage control of (phytotoxicity on) Eleusine indica (ELEIN): adjuvant 0.5% v/v Hexamoll DINCH + 1.0% v/v AMS + 12.5% v/v IPA; for percentage control of Eleusine indica: adjuvant 0.5% v/v TEHP + 1.0% v/v AMS + 12.5% v/v IPA. The method, then: (§2) Post-emergence foliar spray application, 200 L/ha, usually one or two replicates for the weeds (depending on application rate), and two replicates for soybean.
(§3) Standard warm conditions (tropical), in glasshouse. Specifically, the glasshouse bay conditions are 24° C./18° C. day/night; 16/8 hours light/dark; 65% humidity.
(§4) The herbicidal application takes place at the following growth stages for plants which include inter alia one or more of the following plants (usually the herbicidal application takes place on at least the following plants: DIGSA, ELEIN, SETFA, ZEAMX, GLXMA Nikko, and GLXMA TMG133, and often also either BRADC or BRAPP):
Eleusine indica (ELEIN)—growth stage 12 or 13
(§5) Each test compound is applied with one of the following adjuvant systems (all percentages are final concentrations in the aqueous spray mixture):
(§6) Adjuvant system 2: 0.5% v/v Hexamoll™ DINCH**, 1.0% v/v AMS (ammonium sulphate) and 12.5% v/v IPA (isopropyl alcohol).
(§7) Adjuvant system 3: 0.5% v/v tris-(2-ethylhexyl)phosphate (“TEHP”), 1.0% v/v AMS (ammonium sulphate) and 12.5% v/v IPA (isopropyl alcohol).
(§8) Seeds of the weed (including volunteer) plants, typically including inter alia Digitaria sanguinalis (DIGSA), Eleusine indica (ELEIN), Setaria faberi (SETFA), Zea mays (ZEAMX, corn), and sometimes also [either Brachiaria decumbens (BRADC) or Brachiaria platyphylla (BRAPP)], are sown in seed trays (troughs) containing clay loam soil (pH 7.0, 2.2% organic matter, “Trough Mix A”); and soybean seed is sown in pots containing the same soil with 3 soybean seedlings per pot. The plants are sprayed with the test herbicide when they reach the growth stages mentioned above.
(§9) The test herbicidal solutions are prepared by mixing the appropriate aliquots of the test substance(s) and one of the adjuvant systems indicated above *** in deionised water to give the desired treatment concentration.
(§10) The herbicidal application is made as a foliar spray, using a tracksprayer. Following the herbicidal application, the plants are watered twice per day for the duration of the test.
(§11) A visual assessment of the % herbicidal damage is made 7 and 14 Days After herbicide Application (DAA) (or, in a minority of cases, 7 and 15 DAA), and the results are recorded as % visual herbicidal damage where 0%=no damage to plants and 100%=plant totally killed.
(§12) Compounds A2 and A7 were tested using the 0.5% v/v Hexamoll™ DINCH™+1.0% v/v AMS+12.5% v/v IPA adjuvant system. Compounds A11, A12, A14, A20 and A21 were tested using the 0.5% v/v tris-(2-ethylhexyl)phosphate (“TEHP”)+1.0% v/v AMS+12.5% v/v IPA adjuvant system.
(§13) The percentages of herbicidal damage/plant control, at 14 Days After herbicide Application (DAA) (or, in some cases, at 15 DAA), for the Compounds tested and for some of the plants tested, were in the following percentage ranges. For the tested compounds, the phytotoxicity results shown herein are generally the average of 2 or 3 repetitions (for the grassy weeds including corn) or the average of 2 repetitions (for soybean for most of the tested compounds). However, for Compound A2 on soybean there was 1 repetion only.

The test system of assay [3] is Zea mays (ZEAMX, corn/maize). Nature of the assay: Test 1 glasshouse assay, post-emergence herbicidal activity. The note with it: 312 h, post-emergence (Example 1B Table 1), after 13 days, read-out: Percentage phytotoxicity ZEAMX. The essentials: (§14)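 Plants sprayed post-emergence after 8 days' growth with active ingredient in acetone/water (50:50) plus 0.5% Tween 20; glasshouse at 24/16° C day/night, 14 h light, 65% humidity. Visual percentage phytotoxicity scored 13 days later (100% = total damage, 0% = none).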

Assay [4] deals with Abutilon theophrasti (ABUTH). The assay is described as above. To be noted: 312 h, post-emergence (Example 1B Table 1), after 13 days, read-out: Percentage phytotoxicity ABUTH. The procedure, abridged:
as §14

The test system of assay [5] is Amaranthus retroflexus (AMARE). The assay is described as above. The note with it: 312 h, post-emergence (Example 1B Table 1), after 13 days, read-out: Percentage phytotoxicity AMARE. The procedure, abridged:
as §14

The test system of assay [6] is Setaria faberi (SETFA). The assay is described as above. To be noted: 312 h, post-emergence (Example 1B Table 1), after 13 days, read-out: Percentage phytotoxicity SETFA. The procedure, abridged:
as §14

Assay [7] concerns Zea mays (ZEAMX, maize/corn) cultivar Garland. Nature of the assay: Biological Example 3 glasshouse assay, post-emergence, various adjuvant systems. The note with it: 8 g/ha; for percentage control of (phytotoxicity on) Zea mays (ZEAMX, maize, corn): adjuvant 0.5% v/v Hexamoll DINCH + 1.0% v/v AMS + 12.5% v/v IPA; for percentage control of Zea mays: adjuvant 0.5% v/v TEHP + 1.0% v/v AMS + 12.5% v/v IPA. The method, then:
as §2, §3, §4
Zea mays (ZEAMX, maize/corn, e.g. can occur as volunteer corn) cultivar “Garland”—growth stage 12 or 13
as §5, §6, §7, §8, §9, §10, §11, §12, §13
Zea mays (ZEAMX, maize, corn) is often present as a “volunteer” weed (“volunteer” corn) in fields where it was planted as a crop in preceding growing season(s) and where the present field crop is not corn.

For `C#CCC1CC(=O)C(c2c(C)cc(-c3ccc(Cl)cn3)cc2C)C1=O` (stereo not drawn) [Compound A2], the pest or weed control at 250 g/ha in assay [1] was 100%; with Setaria faberi (SETFA) [2] it was 100%; in assay [3], 100%; in assay [4], 80%; in assay [5], 70%; with Setaria faberi (SETFA) [6], 100%. Further, the “percentage control of (phytotoxicity on) Eleusine indica (ELEIN)” value in the assay with Eleusine indica (ELEIN) (14 DAA) is listed as 85%. The pest or weed control at 62.5 g/ha in assay [3] came out at 100%; in assay [4], 70%; in assay [5], 70%; with Setaria faberi (SETFA) [6], 100%. The “percentage control of (phytotoxicity on) Zea mays (ZEAMX, maize, corn)” value in assay [7] (14 DAA) came to 10%.

Turning to `C#CCC1CC(=O)C(c2c(Cl)cc(-c3ccc(F)cc3)cc2OC)C1=O` (stereo not drawn) [Compound A7], the pest or weed control at 250 g/ha came to 100% in assay [1]; 100% in the assay with Setaria faberi (SETFA) [2]; 100% in assay [3]; 80% in assay [4]; 80% in assay [5]; 100% in the assay on Setaria faberi (SETFA) [6]. The “percentage control of (phytotoxicity on) Eleusine indica (ELEIN)” value in the assay with Eleusine indica (ELEIN) (14 DAA) was 91.7%. The pest or weed control at 30 g/ha in assay [3] amounted to 100%; in assay [4], 30%; in assay [5], 20%; in the assay with Setaria faberi (SETFA) [6], 100%. Further, the “percentage control of (phytotoxicity on) Zea mays (ZEAMX, maize, corn)” value in assay [7] (14 DAA) is recorded as 100%.

Regarding `C#CCC1CC(=O)C(c2c(Cl)cc(-c3ccc(Cl)cc3)cc2OC)C1=O` (stereo not drawn) [Compound A11, 2-[2-chloro-4-(4-chlorophenyl)-6-methoxyphenyl]-4-prop-2-ynylcyclopentane-1,3-dione], the pest or weed control at 250 g/ha in assay [1] came to 100%; in the assay on Setaria faberi (SETFA) [2], 100%; in assay [3], 100%; in assay [4], 80%; in assay [5] it was 80%; in the assay with Setaria faberi (SETFA) [6], 100%. The “percentage control of Eleusine indica” value in the assay on Eleusine indica (ELEIN) (14 DAA) stood at 95%. Moreover, the pest or weed control at 30 g/ha in assay [3] came to 100%; in assay [4], 30%; in assay [5], 50%; with Setaria faberi (SETFA) [6], 100%. For the same compound, in assay [7] (14 DAA), the “percentage control of Zea mays” value turned out to be 100%.

For the compound `C#CCC1CC(=O)C(c2c(Cl)cc(-c3ccc(F)cc3F)cc2OC)C1=O` (stereo not drawn) [Compound A12], the pest or weed control at 250 g/ha in assay [1] was determined as 100%; in the assay on Setaria faberi (SETFA) [2], 100%; in assay [3], 100%; in assay [4] it was 80%; in assay [5] it was 80%; with Setaria faberi (SETFA) [6], 100%. Moreover, the “percentage control of Eleusine indica” value in the assay with Eleusine indica (ELEIN) (14 or 15 DAA) was determined as 90%. Besides, the pest or weed control at 30 g/ha was 100% in assay [3], 50% in assay [4], 30% in assay [5] and 100% in the assay on Setaria faberi (SETFA) [6]. Further, the “percentage control of Zea mays” value in assay [7] (14 or 15 DAA) is given as 100%.

On to `C#CCC1CC(=O)C(c2c(F)cc(-c3ccc(Cl)cc3)cc2OC)C1=O` (stereo not drawn) [Compound A14], for which the pest or weed control at 250 g/ha was determined as 100% in assay [1]; 100% in the assay with Setaria faberi (SETFA) [2]; 100% in assay [3]; 0% in assay [4]; 60% in assay [5]; 100% with Setaria faberi (SETFA) [6]. Also, in the assay with Eleusine indica (ELEIN) (15 DAA), the “percentage control of Eleusine indica” value amounted to 20%. Further, the pest or weed control at 62.5 g/ha in assay [3] was 100%; in assay [4], 0%; in assay [5], 50%; with Setaria faberi (SETFA) [6] it was 90%. The “percentage control of Zea mays” value in assay [7] (15 DAA) was found to be 90%.

Consider `C#CCC1CC(=O)C(c2c(F)cc(-c3ccc(F)cc3)cc2OC)C1=O` (stereo not drawn) [Compound A20, 2-[2-fluoro-4-(4-fluorophenyl)-6-methoxyphenyl]-4-prop-2-ynylcyclopentane-1,3-dione], for which the pest or weed control at 250 g/ha amounted to 100% in assay [1]; 100% in the assay on Setaria faberi (SETFA) [2]; 100% in assay [3]; 60% in assay [4]; 70% in assay [5]; 100% with Setaria faberi (SETFA) [6]. The “percentage control of Eleusine indica” value in the assay on Eleusine indica (ELEIN) (14 or 15 DAA) turned out to be 15%. Further, the pest or weed control at 30 g/ha in assay [3] was determined as 90%; in assay [4] it was 0%; in assay [5] it was 0%; with Setaria faberi (SETFA) [6] it was 80%. For the same compound, the “percentage control of Zea mays” value in assay [7] (14 or 15 DAA) is on record as 90%.

As for `C#CCC1CC(=O)C(c2c(F)cc(-c3ccc(F)cc3F)cc2OC)C1=O` (stereo not drawn) [Compound A21], the pest or weed control at 250 g/ha worked out at 100% in assay [1]; 90% in the assay on Setaria faberi (SETFA) [2]; 100% in assay [3]; 40% in assay [4]; 30% in assay [5]; 100% with Setaria faberi (SETFA) [6]. Also, the “percentage control of Eleusine indica” value in the assay on Eleusine indica (ELEIN) (14 or 15 DAA) was 25%. Further, the pest or weed control at 30 g/ha was 100% in assay [3], 0% in assay [4], 10% in assay [5] and 80% in the assay on Setaria faberi (SETFA) [6]. Besides, the “percentage control of Zea mays” value in assay [7] (14 or 15 DAA) was found to be 95%.
